# Experimental data as given in patent US20070027093A1, “Anorectic” (Japan Tobacco Inc., priority 2004, published 2007).
# Where two headings read alike, the source gives them in different places.
# Tests used:
# human DGAT1 = target: T1, human DGAT1 (Homo sapiens, UniProt O75907); test: Assay of DGAT1 enzyme inhibitory activity (Scintillation Proximity Assay); format: biochemical; settings: human DGAT1 membrane fraction from Sf21 cells, 200 μM dioleoyl glycerol, 25 μM 14C decanoyl CoA, SPA; read-out: DGAT1 enzyme inhibitory activity (IC50 class)
# T1 construct: FLAG (N); made in house; host or cells: Sf21 insect cells (baculovirus, Bac-to-Bac system); cell membrane fraction
# T1 sequence (O75907 1-488): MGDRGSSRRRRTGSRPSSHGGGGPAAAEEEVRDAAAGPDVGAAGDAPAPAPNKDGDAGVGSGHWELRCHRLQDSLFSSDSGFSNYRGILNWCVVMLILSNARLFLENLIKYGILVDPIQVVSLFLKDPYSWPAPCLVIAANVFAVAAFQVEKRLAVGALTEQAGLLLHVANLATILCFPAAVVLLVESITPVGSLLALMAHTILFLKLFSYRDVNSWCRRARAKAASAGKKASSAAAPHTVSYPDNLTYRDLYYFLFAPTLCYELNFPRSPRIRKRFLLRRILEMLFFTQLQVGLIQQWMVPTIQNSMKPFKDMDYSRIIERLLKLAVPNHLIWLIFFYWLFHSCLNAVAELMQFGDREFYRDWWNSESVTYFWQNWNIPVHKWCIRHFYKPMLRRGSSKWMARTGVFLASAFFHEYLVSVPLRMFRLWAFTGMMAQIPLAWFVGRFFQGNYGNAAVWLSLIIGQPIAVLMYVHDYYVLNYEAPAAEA
# Procedure: The enzyme source used for the assay was prepared using a human DGAT1 cDNA isolated from the human liver cDNA library. To be specific, a restriction enzyme cleaving sequence and a flag-labeling sequence were added onto the 5′ side and a restriction enzyme cleaving sequence was added onto the 3′ side of the human DGAT1 cDNA by PCR, and human flag tag DGAT1 baculovirus was prepared using Bac-to-Bac Baculovirus Expression System (Invitrogen). Sf21 insect cells were infected for 24-72 hours, recovered and ruptured in a homogenizing buffer using a microfluidizer. The homogenate was centrifuged at 45,000 rpm for 1 hour, and the cell membrane fractions were recovered and used as an enzyme source.
# The DGAT inhibitory activity was measured by Scintillation Proximity Assay (SPA). Human DGAT1 membrane fraction (0.25 μg/well) was mixed with various concentrations of the compound and 200 μM of dioleoyl glycerol (enzyme substrate). […] Wheat Germ Agglutinin (WGA) SPA beads-suspended 6 mM HgCl2 (25 μL) was added to terminate the reaction, and the reaction mixture was kept at room temperature for 2 hours to allow adhesion of produced TG onto the SPA beads together with the cell membrane. The mixture was centrifuged at 2,500 rpm for 5 min to precipitate the SPA beads. The radioactivity was measured using Top Count.
# SD(IGS) rats = test: Evaluation of compounds' effect on food consumption in rats; format: in vivo; settings: Rattus norvegicus, fasted SD(IGS) rats, high fat diet; for inhibition in vivo at 10 mg/kg: 10 mg/kg oral; for inhibition in vivo at 1 mg/kg: 1 mg/kg oral
# From the text: Evaluation of Compounds' Effect on Food Consumption in Rats
# SD(IGS) rats (Charles River Japan, Inc., 5-10 weeks of age, male) were used for the pharmacological tests. Rats were individually housed in the room set to a light cycle of lights-out at 10 am and lights-on at 10 pm, and were adapted to high fat diet (35% w/w). They were acclimated for more than 10 days prior to experiments under these conditions.
# Based on the food consumption during acclimation and the body weight on the day of experiment, rats were grouped with no difference between groups.
# As the test compound, Compounds A-P were used. These test compounds were suspended in 0.5% methyl cellulose solution.
# Rats were fasted for about 24 hours before experiment. Each dose of the test compound was orally administered just after the lights-out, and immediately thereafter, the feeding of the high fat diet was resumed. The food weight was measured at 1, 4 and 8 hours after the resumption of the feeding to obtain the cumulative food consumption. The inhibitory rate on food consumption was determined by the following formula using the weight of the cumulative food consumption in each group.
# The inhibitory rate on food consumption (%)=(1-test compound group/vehicle group)×100
# [1] = cumulative food consumption 1 h after resumption of feeding, read-out: inhibitory rate on food consumption, 1 h
# [2] = cumulative food consumption 4 h after resumption of feeding, read-out: inhibitory rate on food consumption, 4 h
# [3] = cumulative food consumption 8 h after resumption of feeding, read-out: inhibitory rate on food consumption, 8 h
SMILES,IC50 (human DGAT1) [nM],inhibition in vivo at 10 mg/kg (SD(IGS) rats; [1]) [%],inhibition in vivo at 10 mg/kg (SD(IGS) rats; [2]) [%],inhibition in vivo at 10 mg/kg (SD(IGS) rats; [3]) [%],inhibition in vivo at 1 mg/kg (SD(IGS) rats; [1]) [%],inhibition in vivo at 1 mg/kg (SD(IGS) rats; [2]) [%],inhibition in vivo at 1 mg/kg (SD(IGS) rats; [3]) [%]
"CCCc1c(C(=O)OCC)c(C(=O)OCC)c2c(-c3ccccc3)cc(N3CCOCC3)nn12 [Compound B, Diethyl 2-morpholin-4-yl-4-phenyl-7-propylpyrrolo[1,2-b]pyridazine-5,6-dicarboxylate]",> 100,26,14,4,,,
CC1(C)Oc2ncnc(N)c2N=C1c1ccc([C@H]2CC[C@H](CC(=O)O)CC2)cc1 [Compound A],,29,37,30,,,
CC1(C)Oc2nc(C(F)(F)F)nc(N)c2N=C1c1ccc([C@H]2CC[C@H](CC(=O)O)CC2)c(Cl)c1 [Compound M],,,,,26,12,14
Cc1nc(N)c2c(n1)OC(C)(C)C(c1ccc([C@H]3CC[C@H](CCc4nc(=O)on4C)CC3)cc1)=N2 [Compound F],,,,,11,20,13
CC1(C)Oc2nc(C(F)(F)F)nc(N)c2N=C1c1ccc([C@H]2CC[C@H](CNC(N)=O)CC2)c(Cl)c1 [Compound N],,,,,17,6,7
Cc1nc(N)c2c(n1)OC(C)(C)C(c1ccc([C@H]3CC[C@H](CN4CCCC(O)C4=O)CC3)cc1)=N2 (some centres unmarked) [Compound L],10 to 100,,,,10,16,9
Cc1nc(N)c2c(n1)OC(C)(C)C(c1ccc([C@H]3CC[C@H](CNC(=O)CO)CC3)c(Cl)c1)=N2 [Compound H],,,,,36,36,20
CC1(C)Oc2ncnc(N)c2C=C1c1ccc2c(c1)CC[C@]21CC[C@@H](CC(=O)O)CC1 [Compound P],,,,,20,36,28
Cc1nc(N)c2c(n1)OC(C)(C)C(c1ccc([C@H]3CC[C@H](CNC(N)=O)CC3)c(Cl)c1)=N2 [Compound O],,,,,20,13,12
Cc1nc(N)c2c(n1)OC(C)(C)C(c1ccc([C@H]3CC[C@H](CNC(=O)CO)CC3)cc1)=N2 [Compound E],,,,,6,15,20
Cc1nc(N)c2c(n1)OC(C)(C)C(c1ccc([C@H]3CC[C@H](Cc4nc(=O)o[nH]4)CC3)cc1)=N2 [Compound J],,,,,8,23,10
Cc1nc(N)c2c(n1)OC(C)(C)C(c1ccc([C@H]3CC[C@H](CC(=O)O)CC3)cc1)=N2 [Compound D],,,,,50,27,17
CC1(C)Oc2nc(C(F)(F)F)nc(N)c2N=C1c1ccc2c(c1)CCC21CCC(CC(=O)O)CC1 (centres unmarked) [Compound K],,,,,19,37,22
Cc1nc(N)c2c(n1)OC(C)(C)C(c1ccc([C@H]3CC[C@H](CNC(=O)C(C)(C)CO)CC3)cc1)=N2 [Compound G],,,,,29,19,15
Cc1nc(N)c2c(n1)OC(C)(C)C(c1ccc([C@H]3CC[C@H](CNC(=O)C(C)(C)O)CC3)cc1)=N2 [Compound I],,,,,30,1,4
CC1(C)Oc2ncnc(N)c2N=C1c1ccc([C@H]2CC[C@H](CC(=O)O)CC2)cc1 [Compound C],,,,,24,30,19
